Usually melting point stands for the temperature of the solid-liquid transition.

The structures appear in SMILES notation.

For `COc1ccc(Cc2c(F)cccc2F)c(N(CC(N)=O)S(=O)(=O)c2ccc(OC)c(OC)c2)c1`, the melting point was determined as 188 °C.
The same measure for `NC(=O)Cc1ccc2c(c1)C(=O)c1ccccc1CO2`: 157 to 158 °C.
In the case of `COCOCc1c([N+](=O)[O-])cc(OC)c(OC)c1OC` it was 39 to 40 °C; in that of `O=C1C[C@@H]2[C@@H](/C=C/[C@@H](O)COc3cccc(Cl)c3)[C@H](OC(=O)c3ccccc3)C[C@@H]2O1`, 101 to 102 °C.
In the case of `CC(=O)NCCCCC(NC(C)=O)C(C)=O` (centres undefined) it was 111 to 113 °C; in that of `CC1C(=S)Nc2c1cc(F)c(F)c2F` (centres undefined), 177 to 178 °C.
In turn, `CN(C)N1CSC(=Cc2cc(C(C)(C)C)c(O)c(C(C)(C)C)c2)C1=O` came in with a melting point of 138 to 141 °C.
On to `CC(C)(C)C(=O)c1sc(N)nc1-c1ccc(P(=O)(O)O)o1`, for which the melting point is more than 220 °C.
In the case of `CCC1(CCCN2CCN(c3cccc(Cl)c3)CC2)C(=O)Nc2ccc(Cl)cc21` (centres undefined) it was 117 to 119 °C; in that of `COc1ccc(-c2nc(CNC(C)(C)C)nc3cc(OC)c(OC)cc23)cc1OC`, 120 to 122 °C.
In the case of `CCOC(=O)c1c(C)nn(-c2ccc(F)cc2)c1C` it was 59 to 60 °C; in that of `CCN1C(=O)Cc2cc(C(=O)OC)ccc21`, 97 to 98 °C.
The same measure for `O=S(=O)(Cc1ccccc1)C1CCN(Cc2ccccc2)CC1`: 120 to 121 °C; for `CCOC(=O)c1cc2c(cn1)[nH]c1ccc([N+](=O)[O-])c(OCc3ccccc3)c12`: 254 °C.
`CCOC(=O)C(C(=O)C(C)C)C(CC(=O)C(C)C)c1ccc(F)cc1` (centres undefined) gave a melting point of 57 to 60 °C.
In the case of `Fc1cc(-c2ccno2)c(Cl)cc1Cl` it was 112 to 113 °C; in that of `CC(C)(O)c1ccc(Cl)nc1`, 67 to 71 °C; in that of `O=C(CNC(=O)C(Cc1ccccc1)CP(=O)(O)O)OCc1ccccc1` (centres undefined), 250 °C.
Compound `Cc1cc(C)n(C(=O)C(C)NS(=O)(=O)c2ccc(Cl)cc2)n1` (centres undefined) had a melting point of 150 °C.
The compound `COc1cc(F)ccc1C(C)(C)CC#N` showed a melting point of 80 to 83 °C.
Compound `c1ccc(-c2cc(-c3csc(Nc4ccncc4)n3)on2)cc1` registered a melting point of 269 to 270 °C.
In the case of `O=C1c2c(-c3ccccc3F)noc2CCC1CCCN1CCN(C(c2ccc(F)cc2)c2ccc(F)cc2)CC1` (centres undefined) it was 95 to 97 °C; in that of `CCOc1cc(Cc2cnc(N)nc2N)cc2c1OC(C)(C)C=C2`, 184 to 186 °C; in that of `Cc1cccc(NC(c2ccccc2O)c2ccc3cccnc3c2O)n1` (centres undefined), 189 to 191 °C.
In the case of `CS(=O)(=O)N(CCN1C(=O)c2ccccc2C1=O)c1c(Cl)c(Cl)cc2[nH]c(=O)c(=O)[nH]c12` it was more than 300 °C; in that of `CCOC(=O)C1C(=O)C=C(OCC)CC1c1ccc(C)cc1` (centres undefined), 75 to 77 °C; in that of `COc1nc(C(F)(F)F)cc(=O)n1-c1cc(C(=O)O)c(Cl)cc1F`, 205 to 210 °C.
In turn, `COC(=O)c1ccc(CCN(C)CCCC(C#N)(C(=O)OC)c2ccc(OC)c(OC)c2)cc1` (centres undefined) showed a melting point of 80 to 83 °C.
In the case of `C=Cn1ccnc1C#N` it was 81.5 °C; in that of `CCOCc1nc2c(N)nc3c(c2n1NCCCNC(=O)N1CCOCC1)CCCC3`, 152 to 154 °C; in that of `COC(=O)CCC#Cc1ccc(C(=C2CC(C)(C)CC(C)(C)C2)c2ccc(O)cc2)cc1`, 159 to 160 °C.
On to `O=C(NC1CCCCC1)NS(=O)(=O)c1ccc2c(c1)CCN(C(=O)N1CCCC1)CC2`, for which the melting point was 139 to 141 °C.
The same measure for `Cc1cccc2oc(Nc3ccc(CC(=O)O)cc3)nc12`: 337 to 339 °C.
The same measure for `CS(=O)(=O)Nc1ccc(Cc2n[nH]c3c2c(=O)n(-c2ccccc2)c2ncccc32)cc1`: 306 to 307 °C.
The same measure for `COC(=O)c1c(-c2cc(OC)c(OC)c(OC)c2)c2cc(OC)c(CC#N)cc2c(=O)n1-c1ccc(NC(=O)OC(C)(C)C)cc1`: 136 to 138 °C; for `CC(=O)N1CCC(O)(C(=O)c2cc(F)ccc2F)CC1`: 118 to 120 °C.
The compound `Nc1cccc(OCCCN2C(=O)c3ccccc3C2=O)c1` returned a melting point of 157 to 162 °C.
In turn, `N#Cc1cc(O)c(O)c(C#N)c1CCCCC(=O)O` showed a melting point of 210 to 215 °C.
`COc1cc2ncnc(N3CCC(CCNS(C)(=O)=O)CC3)c2cc1OC` showed a melting point of 162 to 164 °C.
The same measure for `Cc1ccnc(-c2nc(=O)c3ccccc3s2)c1`: 200 °C.
`O=C(c1ccc(Cl)cc1)c1ccc(CSC(F)(F)F)cc1` came in with a melting point of 63 to 65 °C.
In the case of `COc1cc2c(cc1C(F)(F)F)N(C(=O)Nc1cccc(-c3cncnc3)c1)CC2` it was 226 to 228 °C; in that of `O=C(O)Cc1nn(Cc2ccc(Br)cc2F)c(=O)c2c(F)cccc12`, 173 to 175 °C; in that of `O=C(OCCc1ccccn1)Oc1ccc([N+](=O)[O-])cc1`, 125 to 127 °C.
`O=C(Nc1ccc(O)cc1)c1c[nH]c2c1C(=O)CCCC2` showed a melting point of 178 to 179 °C.
The same measure for `CCCCCCCCCOc1ncc(-c2ccc(O)cc2)cn1`: 89 to 90 °C; for `COc1ccc(C=C(c2ccc(OCc3ccccc3)cc2)N(C)C)cc1`: 60 °C.
In the case of `CC(C)(C(=O)C(Oc1ccc(Cl)cc1Cl)n1ccnc1)C(Cl)Cl` (centres undefined) it was 125 to 126 °C; in that of `CCc1cnc(N2CCC(c3nc4cc(-c5ccc(S(C)(=O)=O)cc5F)ccc4o3)CC2)nc1`, 247 to 250 °C; in that of `CC(C)(C)C(NC(=O)c1ccc(Cl)cc1)Nc1c(Nc2ccc(F)cc2)c(=O)c1=O` (centres undefined), 247 to 249 °C.
For the compound `Cn1c(-c2ccccc2)cc2cc(N)ccc21`, the melting point lay in the range of 108 to 110 °C.
In the case of `CN1Cc2c(S(=O)(=O)Cl)cc3[nH]c(=O)c(=O)[nH]c3c2C1` it was more than 300 °C; in that of `O=c1[nH]c(=O)n(C2CC(F)C(CF)O2)cc1C=CBr` (centres undefined), 177 to 180 °C; in that of `O=C(C=Cc1cncc(O)c1)NCCCN1CCN(C(c2ccccc2)c2ccccc2)CC1`, 189 to 191 °C.
In the case of `Cc1nc2c(N)nc3ccccc3c2n1CCCCNC(=O)c1ccccc1` it was 164 to 170 °C; in that of `c1ccc2c(c1)nc1n2CCC1`, 86 to 88 °C; in that of `Cc1nc[nH]c1CSCCNC(=NCCc1ccccc1)NC#N`, 135 to 136 °C.
The same measure for `COCCn1nnc2cc3c(cc2c1=O)OCN(C1CC1)C3=O`: 103 to 105 °C; for `CC(C)c1ccc2cc(OCCF)ccc2c1`: 46 to 48 °C.
In turn, `COc1ccc(-c2c(Cl)c(Cn3cnc4ccccc43)nc3sc4c(c23)CCSC4)cc1` showed a melting point of 201 to 203 °C.
Turning to `O=C(Nc1cn2cc(Cl)ccc2n1)c1ccc(C2(C(=O)O)CCCCC2)cc1`, the melting point came out at 288 °C.
`Cc1cc([N+](=O)[O-])ccc1N=C1C2CC3CC(C2)CC(C3)N1CC(C)C` displayed a melting point of 101 to 102 °C.
In the case of `NC(N)=NC(=O)Cn1c(Cl)ccc1Cl` it was 224 to 225 °C; in that of `Cc1c(C)n(CC=Cc2ccccc2)c2c(OCc3ccccc3)nncc12`, 132 to 134 °C; in that of `COc1ccc2c(c1)CCC1C2CCC2(C)C1CCC2N(C=O)CCOCCO` (centres undefined), 134 to 135 °C.
Turning to `O=C1CCc2c(-c3ccncc3)sc(-c3ccc(C(F)(F)F)cc3)c21`, the melting point was in the range of 158 to 160 °C.
In the case of `CC(=Cc1ccc(C(=O)O)cc1)c1ccc2c(c1)N(C)CCC2(C)C` it was 194 to 196 °C; in that of `O=Cc1c2ccccc2c(C=O)c2c(Cl)cccc12`, 186 to 189 °C.
The same measure for `CCOc1cc2ncc(C#N)c(Nc3ccc(Sc4ccccc4)c(Cl)c3)c2cc1OCC`: 88 to 94 °C.
The same measure for `[N-]=[N+]=C1C(=O)CC2CCCCC2C1=O` (centres undefined): 81 to 83 °C; for `CC(C)c1ccc(S(=O)(=O)n2c(C(O)c3cccc(C(=O)O)c3)cc3cc(Cl)ccc32)cc1` (centres undefined): 97 °C; for `CCCc1c(OCCCS(=O)c2nc3ccc(C(=O)O)cc3[nH]2)ccc(C(C)=O)c1O` (centres undefined): 173 to 175 °C.
In turn, `Cc1c(NC(=O)CC(C)(C)C)c(C)c2c(c1-c1ccc[nH]1)OCC2c1ccc(C(C)C)cc1` (centres undefined) gave a melting point of 188 to 190 °C.
In the case of `COc1cc([C@H]2CC[C@H](c3cc(OC)c(OC)c(OC)c3)S2)cc(OC)c1OC` (relative stereo) it was 133 to 134 °C.
The same measure for `O=C1Nc2cc(CN3CC=C(c4ccc(Cl)cc4)CC3)cnc2N2CCCCC12` (centres undefined): 202 °C; for `CN1CCN(C(c2ccccc2)c2ccccc2)CC1(C)Cc1ccc2c(c1)OCCO2` (centres undefined): 118 to 120 °C.
In the case of `COc1cc(C(C)N(O)C(N)=O)cc(OC)c1OC(C)c1ccccc1` (centres undefined) it was 129 to 132 °C; in that of `O=C(O)c1ccc(-c2ncc(-c3ccc(F)cc3F)o2)cc1`, 301 to 302 °C.
In the case of `COc1cc(Cl)cc(Cl)c1O`, the melting point turned out to be 62 °C.
For the compound `CN(C)C(=O)CCc1c[nH]c(-c2cccs2)c1`, the melting point lay within 107 to 109 °C.
The same measure for `N=C(N)NCCc1ccc(OCCC2Oc3ccccc3N(Cc3cccc(Cl)c3)C2=O)cc1` (centres undefined): 90 to 101 °C; for `COc1ccc(C2=CCN(Cc3n[nH]c4ccccc34)CC2)cc1`: 157 to 159 °C.
`COC(=O)C(C#N)C(c1ccccc1OC)c1ccnc2ccccc12` (centres undefined) showed a melting point of 169 to 171 °C.
`Cc1nc(N2CCc3nc(N)sc3CC2)c([N+](=O)[O-])c(=O)[nH]1` gave a melting point of more than 200 °C.
In the case of `CCN1c2ncc(CCc3cccc(N)c3)cc2C(=O)N(C)c2cccnc21` it was 129 to 131 °C; in that of `O=[N+]([O-])c1ccc(-c2cccs2)c(-c2cccs2)c1`, 97 to 101 °C; in that of `O=C1Cc2cc(OCc3ccc4ccccc4n3)ccc2N1c1c(Cl)cccc1Cl`, 147 to 148 °C.
In the case of `Nc1cc(-c2ccoc2)ccc1Nc1cccc(C(=O)O)c1` it was 211 to 212 °C; in that of `O=C(O)Cc1c(C(=O)c2cccc(Cl)c2)[nH]c2cc(Cl)ccc12`, 199 to 201 °C.

Source of the values: a melting point compilation (Tetko et al.; mined from patent text by program, amines drawn as free bases though some values may be those of a salt).
